In patent US20060252918A1, “Use of hepatitis virus (hcv) p7 protein” (priority 2002, published 2006):

T1: HCV p7 (Hepatitis C virus genotype 1b, UniProt O92972)
T1 construct: the p7 protein of HCV is a 63 amino acid protein; expressed in transfected cells; host or cells: Vero cells (T7-driven expression, lipofectamine transfection)
T1 sequence (O92972 747-809 limits assumed): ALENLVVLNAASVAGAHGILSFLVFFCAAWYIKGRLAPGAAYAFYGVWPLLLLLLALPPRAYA

T2: HISp7 (HCV p7 with 6-HIS linker) (Hepatitis C virus genotype 1b, UniProt O92972)
T2 construct: the p7 protein of HCV is a 63 amino acid protein; GST (N, cleaved yes); made in house; host or cells: E. coli (pGEXHISp7 in pGEX4T1; DH5alpha is named for cloning)
T2 sequence (O92972 747-809 limits assumed): T1 sequence (O92972 747-809 limits assumed)

B1: hepatitis C virus (HCV) p7 protein (other)
chain: T1 sequence (O92972 747-809 limits assumed)
notes: mature; p7 expressed alone in hepatocyte-derived (HepG2) cells; The mammalian expression construct is not described; p7 is the 63-residue part of it

How the values were obtained:
[1] = biological target: T1, HCV p7; type: cell-based
[2] = biological target: T2, HISp7 (HCV p7 with 6-HIS linker); type: biochemical, hepatitis C virus 1B (J4 isolate)
[3] = biological target: the molecule itself; assay: self-association in HepG2 cell membranes

Molecule | inhibition of HA transport facilitated by HCV p7 [1] | inhibition of ion channel formation by HISp7 [2] | binding result [3]
NC12CC3CC(CC(C3)C1)C2 [amantadine] | HA transport is inhibited | inhibits ion channel formation by HISp7 FIG. 9) in the micromolar range | 
B1 |  |  | binds
